# Counter-ions that a name gives are not always drawn.
# Columns and labels:
# A172 = assay: MTT cell viability assay; format: cell-based; conditions: Homo sapiens
# Text: (§1) All of the tested cell lines were acquired from the American Type Culture Collection (ATCC, Manassas, VA, USA), including human breast cancer cell lines (MCF-7, MDA-MB-231), human gastric cancer cell line (AGS), human colorectal cancer cell lines (HT-29, DLD-1), human glioblastoma cancer cell lines (T98G, A172), mouse astrocyte type I clone (C8-D1A), human normal epithelial breast cells (MCF-10A) and primary dermal fibroblast (HDFa). Such cell lines as AGS, MCF-7, MDA-MB-231, A172, T98G, C8-D1A, and primary dermal fibroblast (HDFa) were cultured in complete medium–DMEM (Corning, Kennebunk, ME, USA). RPMI-1640 (ATCC, Manassas, VA, USA) was used for the DLD-1 cell line, and McCoy’s 5A (PAN-Biotech, Aidenbach, Germany) for the HT-29 cell line. To all utilized media additionally was added 10% fetal bovine serum (FBS) (Eurx, Gdansk, Poland) and 1% penicillin and streptomycin solution (Corning, Kennebunk, ME, USA). MCF-10A cells were incubated in MEGM (Mammary Epithelial Cell Growth Medium) BulletKit supplemented with penicillin/streptomycin cocktail and 5% horse serum. All cells were cultured at 37 °C in an atmosphere with 5% CO₂ in tissue culture dishes (Sarstedt, Numbrecht, Germany). For experiments, cells were washed with phosphate-buffered saline (PBS) (Corning, Kennebunk, ME, USA) followed by the addition of 0.05% trypsin with 0.02% EDTA (Corning, Kennebunk, ME, USA). Scepter 3.0 cell counter (Merck Millipore, Burlington, MA, USA) was applied before each seeding to calculate the number of cells. For the next analyses, cells were reseeded in 6-well plates, 24-well plates, and 96-well plates.
# (§2) MTT (3-(4,5-dimethylthiazol-2-yl)-2,5-diphenyltetrazolium bromide) assay method was utilized to analyze compound effects on cell viability. All cell lines were seeded in 96-well plates with 1 × 10^4 cells per well. After 24 h, cells were treated with the tested compounds and reference drug at concentrations of 0.1, 1, 2.5, 5, 10, and 20 µM for 24, 48, or 72 h. Next, a solution of 3-(4,5-dimethyl-2-thiazolyl)-2,5-diphenyl-2H-tetrazolium bromide (Sigma-Aldrich, St. Louis, MO, USA) in PBS with a concentration of 5 mg/mL was prepared. After the incubation with tested compounds, 10 µL of the prepared MTT solution was applied to each well, followed by 2 h of incubation at 37 °C. Next, cells underwent lysis by adding 100 µL of pre-prepared lysing buffer (containing 25 mM HCl, 2% acetic acid, 3% DMF, and 5% SDS, with a pH of 4.7). The absorbance was measured using a UV-VIS Helios Gamma (Unicam/ThermoFisher Scientific Inc., Cleveland, OH, USA) at 570 nm wavelength. The cells incubated with vehicle substance (0.1% DMSO) were taken as controls.
# (§3) To investigate the cytotoxic potential of the newly synthesized compounds, a comprehensive assessment was conducted utilizing the MTT assay. This assay was applied on a diverse panel of cell lines, such as human breast cancer cell lines (MCF-7 and MDA-MB-231), human gastric cancer cell line (AGS), human colorectal cancer cell lines (HT-29 and DLD-1), human glioblastoma cancer cell lines (T98G and A172), mouse astrocyte type I clone cells (C8-D1A), primary dermal fibroblast (HDFa), and human normal breast cells (MCF-10A) for 24, 48, and/or 72 h.
# AGS = assay: MTT cell viability assay; format: cell-based; conditions: Homo sapiens
# Text: as §1, §2, §3
# DLD-1 = assay: MTT cell viability assay; format: cell-based; conditions: Homo sapiens
# Text: as §1, §2, §3
# HT-29 = assay: MTT cell viability assay; format: cell-based; conditions: Homo sapiens
# Text: as §1, §2, §3
# MCF-10A = assay: MTT cell viability assay; format: cell-based; conditions: Homo sapiens, normal cells
# Text: as §1, §2, §3
# MCF-7 = assay: MTT cell viability assay; format: cell-based; conditions: Homo sapiens
# Text: as §1, §2, §3
# MDA-MB-231 = assay: MTT cell viability assay; format: cell-based; conditions: Homo sapiens
# Text: as §1, §2, §3
# [1] = test system: Primary Dermal Fibroblast (HDFa); assay: MTT cell viability assay; format: cell-based; conditions: Homo sapiens, normal cells
# Text: as §1, §2, §3
# T98G = assay: MTT cell viability assay; format: cell-based; conditions: Homo sapiens
# Text: as §1, §2, §3
# C8-D1A = assay: MTT cell viability assay; format: cell-based; conditions: Mus musculus, normal cells
# Text: as §1, §2, §3
# MCF-7 cells = assay: Clonogenic assay; format: cell-based, human; conditions: 24 h treatment, 10-day endpoint
# Procedure: The clonogenic assay was performed in accordance with the published methodology. MCF-7 cells were seeded in 24-well plates at 2.5 × 10^2 cells per well in 1 mL medium. Afterwards, they were left in an incubator at 37 °C for 24 h to attach to the wells. […] After the treatment, the medium was changed to a fresh one and left for 10 days, with an additional change in medium for the fresh one on the 7th day. Next, colonies formed by the seeded cells were washed, fixed for 10 min at 4 °C with 90% methanol, and stained with crystal violet solution (0.1% of crystal violet dissolved in 25% methanol). Afterwards, the plates were washed and dried at room temperature. The wells were photographed and analyzed using ImageJ software version 1.54k (Bethesda, MD, USA), with colonies defined as clusters of fifty or more cells.
# Colonies formation was assessed after a 10-day incubation period following the treatment.
IC50 (AGS; AGS 24 h) [µM],IC50 (AGS; AGS 48 h) [µM],IC50 (DLD-1; DLD-1 24 h) [µM],IC50 (DLD-1; DLD-1 48 h) [µM],IC50 (HT-29; HT-29 24 h) [µM],IC50 (HT-29; HT-29 48 h) [µM],"IC50 (MCF-7; MCF7, MCF-7 24 h) [µM]","IC50 (MCF-7; MCF7, MCF-7 48 h) [µM]","IC50 (MCF-7; MCF7, MCF-7 72 h) [µM]",IC50 (MDA-MB-231; MDA-MB-231 24 h) [µM],IC50 (MDA-MB-231; MDA-MB-231 48 h) [µM],IC50 (MDA-MB-231; MDA-MB-231 72 h) [µM],Compound,"IC50 (A172; A 172, A172 24 h) [µM]","IC50 (A172; A 172, A172 48 h) [µM]",IC50 (MCF-10A; MCF-10A 24 h) [µM],IC50 ([1]; HDFa 24 h) [µM],IC50 ([1]; HDFa 48 h) [µM],IC50 ([1]; HDFa 72 h) [µM],IC50 (T98G; T98G 24 h) [µM],IC50 (T98G; T98G 48 h) [µM],also measured
> 20,2.24 ± 0.31,18.2 ± 1.24,3.86 ± 0.11,> 20,4.58 ± 0.46,6.93 ± 0.13,7.93 ± 0.1,2.43 ± 0.12,> 20,> 20,> 20,"COc1ccc(C=C2SC(Nc3cc(OC)c(OC)c(OC)c3)=NC2=O)cc1 [Les-6381, 5-(4-Methoxybenzylidene)-2-((3,4,5-trimethoxyphenyl)amino)thiazol-4(5H)-one]",> 20,8.65 ± 0.52,8.37 ± 0.11,> 20,> 20,> 20,13.1 ± 0.24,4.09 ± 0.1,IC50 (MCF-10A; MCF-10A 48 h): 0.97 ± 0.04 µM; IC50 (MCF-10A; MCF-10A 72 h): 2.03 ± 0.1 µM
> 20,14.5 ± 0.57,> 20,> 20,> 20,4.41 ± 0.35,> 20,> 20,> 20,> 20,> 20,> 20,"COc1cc(NC2=NC(=O)C(=Cc3cccs3)S2)cc(OC)c1OC [Les-6423, 5-(Thiophen-2-ylmethylene)-2-((3,4,5-trimethoxyphenyl)amino)thiazol-4(5H)-one]",> 20,> 20,–,> 20,> 20,> 20,> 20,> 20,–
> 20,0.39 ± 0.01,4.69 ± 0.48,0.6 ± 0.08,> 20,0.3 ± 0.04,2.46 ± 0.54,0.81 ± 0.01,0.26 ± 0.03,> 20,3.91 ± 0.22,2.37 ± 0.15,"COc1cccc2c1C(=O)c1c(O)c3c(c(O)c1C2=O)C[C@@](O)(C(=O)CO)C[C@@H]3O[C@H]1C[C@H](N)[C@H](O)[C@H](C)O1 [DOX, Doxorubicin hydrochloride, reference compound]",> 20,12.9 ± 0.89,> 20,> 20,> 20,0.99 ± 0.03,> 20,> 20,"IC50 (C8-D1A; C8-D1A 24 h): > 20 µM; IC50 (C8-D1A; C8-D1A 48 h): 0.25 ± 0.01 µM; IC50 (MCF-10A; MCF-10A 48 h): 0.16 ± 0.01 µM; IC50 (MCF-10A; MCF-10A 72 h): 0.11 ± 0.01 µM; survival fraction (MCF-7 cells; 1, 0.5, and 0.1 µM): 0%"

Compound,IC50 (AGS; AGS 24 h) [µM],IC50 (AGS; AGS 48 h) [µM],IC50 (DLD-1; DLD-1 24 h) [µM],IC50 (DLD-1; DLD-1 48 h) [µM],IC50 (HT-29; HT-29 24 h) [µM],IC50 (HT-29; HT-29 48 h) [µM],"IC50 (MCF-7; MCF7, MCF-7 24 h) [µM]","IC50 (MCF-7; MCF7, MCF-7 48 h) [µM]","IC50 (MCF-7; MCF7, MCF-7 72 h) [µM]",IC50 (MDA-MB-231; MDA-MB-231 24 h) [µM],IC50 (MDA-MB-231; MDA-MB-231 48 h) [µM],IC50 (MDA-MB-231; MDA-MB-231 72 h) [µM],"IC50 (A172; A 172, A172 24 h) [µM]","IC50 (A172; A 172, A172 48 h) [µM]",IC50 (MCF-10A; MCF-10A 24 h) [µM],IC50 ([1]; HDFa 24 h) [µM],IC50 ([1]; HDFa 48 h) [µM],IC50 ([1]; HDFa 72 h) [µM],IC50 (T98G; T98G 24 h) [µM],IC50 (T98G; T98G 48 h) [µM],also measured
"COc1cc(NC2=NC(=O)C(=Cc3ccc4cc[nH]c4c3)S2)cc(OC)c1OC [Les-6416, 5-((1H-Indol-6-yl)methylene)-2-((3,4,5-trimethoxyphenyl)amino)thiazol-4(5H)-one]",> 20,3.45 ± 0.2,> 20,> 20,> 20,6.58 ± 0.37,4.7 ± 0.06,2.09 ± 0.05,1.29 ± 0.01,> 20,> 20,> 20,> 20,> 20,> 20,> 20,> 20,> 20,> 20,> 20,IC50 (C8-D1A; C8-D1A 24 h): 14.3 ± 1.52 µM; IC50 (C8-D1A; C8-D1A 48 h): 7.1 ± 0.73 µM; IC50 (MCF-10A; MCF-10A 48 h): 7.99 ± 0.48 µM; IC50 (MCF-10A; MCF-10A 72 h): 7.25 ± 0.3 µM; survival fraction (MCF-7 cells; 2.5 µM): 5.89 ± 0.71%; survival fraction (MCF-7 cells; 5 µM): 1.35 ± 1.42%
"COc1cc(NC2=NC(=O)C(=Cc3c[nH]c4ccccc34)S2)cc(OC)c1OC [Les-6418, 5-((1H-Indol-3-yl)methylene)-2-((3,4,5-trimethoxyphenyl)amino)thiazol-4(5H)-one]",> 20,4.59 ± 0.42,> 20,> 20,> 20,7.77 ± 0.91,> 20,4.51 ± 0.04,2.24 ± 0.07,> 20,> 20,> 20,> 20,> 20,> 20,> 20,> 20,> 20,16.9 ± 1.58,> 20,IC50 (C8-D1A; C8-D1A 24 h): 12.9 ± 0.24 µM; IC50 (C8-D1A; C8-D1A 48 h): 7.42 ± 2.33 µM; IC50 (MCF-10A; MCF-10A 48 h): 7.24 ± 0.29 µM; IC50 (MCF-10A; MCF-10A 72 h): 6.66 ± 0.67 µM; survival fraction (MCF-7 cells; 2.5 µM): 38.83 ± 1.66%; survival fraction (MCF-7 cells; 5 µM): 12.27 ± 9.27%
